Experimental data taken from PubChem BioAssay AID1347039 (Raney Lab, University of Arkansas for Medical Sciences …, 2019).
Results filed as inconclusive are left out. The source made the active and inactive calls.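 The calls were made as follows: active = remaining helicase activity under 10% at 30 micromolar; inconclusive = remaining helicase activity between 10% and 50%; inactive = remaining helicase activity over 50%.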

Test system: Hepatitis C virus NS3 helicase
Assay: HCV NS3 helicase DNA unwinding inhibitors, primary screen, biochemical, fluorescence, FAM-quenched DNA substrate, full-length NS3 (AID 1347039)
Conditions: recombinant NS3 DNA unwinding, FAM fluorescence rate; at 30 µM; active compounds read low

SMILES	remaining helicase activity
O=C1NC(=S)NC(=O)C1=Cc1cn(C(=O)c2ccc(F)cc2)c2ccccc12	51.1% (inactive)
O=C1NC(=S)NC(=O)C1=Cc1cn(C(=O)c2ccccc2Br)c2ccc(Cl)cc12	83.8% (inactive)
O=C1NC(=S)NC(=O)C1=Cc1cn(C(=O)c2ccc3ccccc3c2)c2ccccc12	0%
O=C1NC(=S)NC(=O)C1=Cc1cn(C(=O)c2ccc3ccccc3c2)c2ccc(Cl)cc12	73.3% (inactive)
COc1ccc(C(=O)n2cc(C=C3C(=O)NC(=S)NC3=O)c3ccccc32)cc1	54.6% (inactive)
COc1ccc(C(=O)n2cc(C=C3C(=O)NC(=S)NC3=O)c3cc(Br)ccc32)cc1	61.9% (inactive)
COc1ccc(C(=O)n2cc(C=C3C(=O)NC(=S)NC3=O)c3cc(OC)ccc32)cc1	55.2% (inactive)
O=C1NC(=S)NC(=O)C1=Cc1cn(C(=O)c2ccccc2)c2ccccc12	56.3% (inactive)
COc1ccc(C(=O)n2cc(C=C3C(=O)NC(=S)NC3=O)c3cc(Cl)ccc32)cc1	53.2% (inactive)
O=C1NC(=S)NC(=O)C1=Cc1cn(C(=O)c2ccccc2Br)c2ccccc12	63.5% (inactive)
COc1ccc2c(c1)c(C=C1C(=O)NC(=S)NC1=O)cn2C(=O)c1ccccc1	79.2% (inactive)
O=C1NC(=S)NC(=O)C1=Cc1cn(C(=O)c2ccccc2)c2ccc(Cl)cc12	73.2% (inactive)
O=C1NC(=S)NC(=O)C1=Cc1cn(C(=O)c2cccc3ccccc23)c2ccc(Cl)cc12	33.4% (inactive)
COc1ccc2c(c1)c(C=C1C(=O)NC(=S)NC1=O)cn2C(=O)c1ccc2ccccc2c1	6.3%
COc1ccc2c(c1)c(C=C1C(=O)NC(=S)NC1=O)cn2C(=O)c1cccc2ccccc12	0%
O=C1NC(=S)NC(=O)C1=Cc1cn(C(=O)c2ccccc2Br)c2ccc(Br)cc12	53.2% (inactive)
O=C1NC(=S)NC(=O)C1=Cc1cn(C(=O)c2cccc3ccccc23)c2ccccc12	22.3% (inactive)
